Measured values taken from US20240374692A1, “A NOVEL ACYLATED INSULIN ANALOG” (SUNSHINE LAKE PHARMA CO., LTD., priority 2021, published 2024).

Experiments:
normal C57BL/6 mice = experiment: Hypoglycemic effect, single subcutaneous administration to normal C57BL/6 mice; type: in vivo; parameters: blood glucose: unit not given here; conditions: for blood glucose: Mean ± SEM, n = 6
In short: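 Normal C57BL/6 mice, grouped by random blood glucose and body weight, received a single subcutaneous dose of compound or PBS vehicle and were not fasted. Random blood glucose was measured before dosing and at 0.25, 0.5, 1, 2, 4, 6, 8, 10, 24, 48, 54, 72 and 96 h. Data are Mean±SEM.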

[1] = tested on: STZ-induced type I diabetes mellitus (T1DM) C57BL/6 mice; experiment: Hypoglycemic effect, repeated administration (four times) to STZ-induced T1DM C57BL/6 mice (Example 5); type: in vivo; parameters: key to random blood glucose: random blood glucose in mmol/L, Mean±SEM
Protocol: SPF grade C57BL/6 mice were reared in a suitable rearing box in a barrier environment, with a rearing temperature of 20-26° C., a humidity of 40-70%, a time between day and night of 12 h/12 h, and the mice had free access to standard food and autoclaved sterilization water. After a 3-day quarantine period and a 2-day acclimation period, the mice were fasted for 12 h, and the mice were injected intraperitoneally with streptozotocin solution (STZ, 13 mg/mL, in citrate buffer) or citrate buffer at 130 mg/kg (control group). 3 Days and 7 days after administration of streptozotocin, random blood glucose and fasting blood glucose were detected, and the random blood glucose value above 25 mmol/L and fasting blood glucose value above 11.1 mmol/L were selected as T1DM model mice for follow-up experiments. On the day before administration, random blood glucose was monitored and mice were weighed. Mice were divided into 4 groups according to random blood glucose and body weight.
Subcutaneous administration (S.C.) was used to administer the corresponding vehicle or drug, once every 4-5 days, for a total of 4 administrations. During the experiment, the animals were allowed to eat and drink water freely. The random blood glucose before the first administration, and 0.25, 0.5, 1, 2, 4, 6, 8, 10, 24, 48, 72, and 96 h after administration were assessed, as well as the random blood glucose before the second, third and fourth administration, and 1, 2, 4, 6, 8, 24, 48, 72, 96 and 120 h after administration.
All raw data were entered into Excel files and expressed as Mean±SEM. Statistical analysis of data was performed using Graphpad Prism 7.0 software, one-way or two-way ANOVA comparison method, and P<0.05 was used as the criterion for significant differences.

[2] = rat, in vivo, iv, 10 nmol/kg
insulin receptor B = target: T1, insulin receptor B (Homo sapiens, UniProt P06213); experiment: Insulin receptor B autophosphorylation in transfected cells (Cisbio Phospho-IR beta Tyr1150/1151 kit); type: cell-based; conditions: for Relative HI activity: relative to human insulin
T1 construct: expressed in transfected cells
In short: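 Cells serum-starved ~4 h, then exposed 5 min at 37 °C, 5% CO2 to insulin derivative dilutions in 0.6% casein/EDTA/DPBS, optionally with 1.5% HSA to probe albumin binding. Tyr1150/1151 phosphorylation in lysate measured by HTRF kit; relative activity (%) from nonlinear curve fit.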

[3] = single S.C., Degludec 200 nmol/Kg, others 1400 nmol/Kg

T1 sequence (P06213 28-758 limits assumed): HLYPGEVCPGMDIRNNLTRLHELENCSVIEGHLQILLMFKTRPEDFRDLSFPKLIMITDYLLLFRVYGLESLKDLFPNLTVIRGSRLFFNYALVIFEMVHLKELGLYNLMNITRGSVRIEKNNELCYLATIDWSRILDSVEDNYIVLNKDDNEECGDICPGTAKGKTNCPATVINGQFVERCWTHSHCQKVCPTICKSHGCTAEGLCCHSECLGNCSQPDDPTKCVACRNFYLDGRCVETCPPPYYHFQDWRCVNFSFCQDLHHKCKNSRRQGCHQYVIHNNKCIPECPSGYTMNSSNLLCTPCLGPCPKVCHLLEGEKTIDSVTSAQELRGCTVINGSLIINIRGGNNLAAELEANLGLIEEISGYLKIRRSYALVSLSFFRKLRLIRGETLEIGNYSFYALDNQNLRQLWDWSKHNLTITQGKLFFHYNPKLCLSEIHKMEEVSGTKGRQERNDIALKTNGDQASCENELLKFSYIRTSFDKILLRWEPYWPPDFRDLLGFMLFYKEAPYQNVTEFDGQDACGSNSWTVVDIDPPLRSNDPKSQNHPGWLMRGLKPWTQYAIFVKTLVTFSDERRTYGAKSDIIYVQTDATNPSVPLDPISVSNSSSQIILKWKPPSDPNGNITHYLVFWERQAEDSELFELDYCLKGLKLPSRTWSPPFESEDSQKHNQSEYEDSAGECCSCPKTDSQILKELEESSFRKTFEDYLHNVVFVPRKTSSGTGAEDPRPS
T1 sequence (P06213 763-1382 partner limits assumed): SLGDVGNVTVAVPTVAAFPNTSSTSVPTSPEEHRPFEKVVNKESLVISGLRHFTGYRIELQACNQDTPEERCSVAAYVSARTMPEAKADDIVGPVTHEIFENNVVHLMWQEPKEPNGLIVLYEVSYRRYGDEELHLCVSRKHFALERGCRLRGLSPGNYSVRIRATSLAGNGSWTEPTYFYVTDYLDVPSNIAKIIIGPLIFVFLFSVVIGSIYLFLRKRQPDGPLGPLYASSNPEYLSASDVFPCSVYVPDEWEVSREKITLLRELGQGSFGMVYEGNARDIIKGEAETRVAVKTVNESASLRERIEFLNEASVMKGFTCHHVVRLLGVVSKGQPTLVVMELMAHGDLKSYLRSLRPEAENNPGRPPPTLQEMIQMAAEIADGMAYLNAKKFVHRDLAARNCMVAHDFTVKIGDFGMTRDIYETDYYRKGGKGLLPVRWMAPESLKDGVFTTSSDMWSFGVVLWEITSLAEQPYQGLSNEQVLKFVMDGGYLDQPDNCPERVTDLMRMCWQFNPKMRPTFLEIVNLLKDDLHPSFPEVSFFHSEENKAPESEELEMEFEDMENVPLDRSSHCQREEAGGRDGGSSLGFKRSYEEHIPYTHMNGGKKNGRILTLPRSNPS

A14E, B16E, B25H, B29K(N(ε)-COOH(CH2)18CO-L-Lys-CO(CH2)2CO—(OEG)2), desB30 human insulin analog [Insulin-a3]
blood glucose (normal C57BL/6 mice; 0 h (before administration), single S.C., Degludec 200 nmol/Kg, others 1400 nmol/Kg): 8.0 ± 1.0 | blood glucose (normal C57BL/6 mice; 0.25 h after single S.C., Degludec 200 nmol/Kg, others 1400 nmol/Kg): 8.6 ± 1.0 | blood glucose (normal C57BL/6 mice; 0.5 h after single S.C., Degludec 200 nmol/Kg, others 1400 nmol/Kg): 6.2 ± 0.4 | blood glucose compared with the control group (normal C57BL/6 mice; 1 h after single S.C. administration): decreased significantly | blood glucose (normal C57BL/6 mice; 1 h after single S.C., Degludec 200 nmol/Kg, others 1400 nmol/Kg): 4.9 ± 0.8 | blood glucose (normal C57BL/6 mice; 2 h after single S.C., Degludec 200 nmol/Kg, others 1400 nmol/Kg): 4.5 ± 1.0 | blood glucose (normal C57BL/6 mice; 4 h after single S.C., Degludec 200 nmol/Kg, others 1400 nmol/Kg): 3.9 ± 0.7 | blood glucose (normal C57BL/6 mice; 6 h after single S.C., Degludec 200 nmol/Kg, others 1400 nmol/Kg): 3.7 ± 0.5 | blood glucose (normal C57BL/6 mice; 8 h after single S.C., Degludec 200 nmol/Kg, others 1400 nmol/Kg): 3.8 ± 0.5 | blood glucose (normal C57BL/6 mice; 10 h after single S.C., Degludec 200 nmol/Kg, others 1400 nmol/Kg): 3.5 ± 0.7 | blood glucose (normal C57BL/6 mice; 24 h after single S.C., Degludec 200 nmol/Kg, others 1400 nmol/Kg): 2.9 ± 1.0 | blood glucose (normal C57BL/6 mice; 48 h after single S.C., Degludec 200 nmol/Kg, others 1400 nmol/Kg): 4.2 ± 2.0 | blood glucose (normal C57BL/6 mice; 72 h after single S.C., Degludec 200 nmol/Kg, others 1400 nmol/Kg): 5.4 ± 2.6 | blood glucose (normal C57BL/6 mice; 96 h after single S.C., Degludec 200 nmol/Kg, others 1400 nmol/Kg): 8.8 ± 1.1 | effect on blood glucose control compared with Icodec (normal C57BL/6 mice; single S.C. 1400 nmol/Kg): slightly worse | effective blood glucose control time (normal C57BL/6 mice; [3]): 96 h | time after administration at which blood glucose reached the lowest level (normal C57BL/6 mice; [3]): 24 h | glucose control effect and effective glucose control time compared with Insulin-a1 ([1]; 1400 nmol/Kg S.C. four times): significantly better | time after administration at which blood glucose reached the lowest level ([1]; 1400 nmol/Kg S.C., Insulin-a1 each administration, Insulin-a3 first and second administrations): 24 h | time after administration at which blood glucose reached the normal level ([1]; 1400 nmol/Kg S.C., after the first and second administrations): 96 h | time after administration at which blood glucose reached the normal level ([1]; 1400 nmol/Kg S.C., after the third and fourth administrations): 120 h | random blood glucose ([1]; Day 0 (1st administration), 1400 nmol/Kg S.C. four times): 31.3 ± 3.1 | random blood glucose ([1]; Day 1, 1400 nmol/Kg S.C. four times): 17.4 ± 6.7 | random blood glucose ([1]; Day 4 (2nd administration), 1400 nmol/Kg S.C. four times): 26.9 ± 8.0 | random blood glucose ([1]; Day 5, 1400 nmol/Kg S.C. four times): 7.1 ± 3.8 | random blood glucose ([1]; Day 9 (3rd administration), 1400 nmol/Kg S.C. four times): 26.2 ± 7.9 | random blood glucose ([1]; Day 10, 1400 nmol/Kg S.C. four times): 8.6 ± 5.7 | random blood glucose ([1]; Day 14 (4th administration), 1400 nmol/Kg S.C. four times): 24.4 ± 5.7 | random blood glucose ([1]; Day 18, 1400 nmol/Kg S.C. four times): 19.7 ± 6.4 | time the effective glucose control effect can be maintained ([1]; repeated administration, C57BL6 mice modeled by STZ): 4-5 days/time | AUClast [2]: 9170 ng·h/mL | T1/2 [2]: 11.2 ± 1.9 h | EC50 (insulin receptor B; 0% HSA): 213 nM | Relative HI activity (insulin receptor B; 0% HSA): 0.58% | EC50 (insulin receptor B; 1.5% HSA): 4490 nM | Relative 0% HSA activity (insulin receptor B; 1.5% HSA relative to 0% HSA): 5.86% | Relative HI activity (insulin receptor B; 1.5% HSA): 0.06%
